Data as given in PubChem BioAssay AID1963985 (Molecular Pharmacology Branch, DTP, NCI, 2024).

Tested on: 252836-082-R-J2-PDC tumor spheroids, viability
Experiment: Anticancer human tumor 252836-082-R-J2-PDC patient-derived head and neck squamous cell carcinoma cell line growth inhibition [PI3K]
Conditions: spheroids with HUVEC and MSC; for IC50: curve of first compound; for viability, T/C: stronger effect = lower value
How it was run: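 Three cell types, namely tumor cells, endothelial cells and mesenchymal stem cells, formed each spheroid. Combinations with four PI3K inhibitors were screened at clinically achievable concentrations decreasing by half-log, and spheroid viability was recorded.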

[1] = second compound 0.0316 µM, first compound 0.0316 µM
[2] = second compound 0.0316 µM, first compound 0.1 µM
[3] = second compound 0.1 µM, first compound 0.0316 µM
[4] = second compound 0.1 µM, first compound 0.1 µM
[5] = second compound 0.316 µM, first compound 0.0316 µM
[6] = second compound 0.316 µM, first compound 0.1 µM
[7] = second compound 1 µM, first compound 0.0316 µM
[8] = second compound 1 µM, first compound 0.1 µM
[9] = second compound 3.16 µM, first compound 0.0316 µM
[10] = second compound 3.16 µM, first compound 0.1 µM
[11] = second compound 10 µM, first compound 0.0316 µM
[12] = second compound 10 µM, first compound 0.1 µM
[13] = second compound 0.0316 µM, first compound 0.000316 µM
[14] = second compound 0.0316 µM, first compound 0.001 µM
[15] = second compound 0.0316 µM, first compound 0.00316 µM
[16] = second compound 0.0316 µM, first compound 0.01 µM
[17] = second compound 0.1 µM, first compound 0.000316 µM
[18] = second compound 0.1 µM, first compound 0.001 µM
[19] = second compound 0.1 µM, first compound 0.00316 µM
[20] = second compound 0.1 µM, first compound 0.01 µM
[21] = second compound 0.316 µM, first compound 0.000316 µM
[22] = second compound 0.316 µM, first compound 0.001 µM
[23] = second compound 0.316 µM, first compound 0.00316 µM
[24] = second compound 0.316 µM, first compound 0.01 µM
[25] = second compound 1 µM, first compound 0.000316 µM
[26] = second compound 1 µM, first compound 0.001 µM
[27] = second compound 1 µM, first compound 0.00316 µM
[28] = second compound 1 µM, first compound 0.01 µM
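Further: spheroids exposed to agents for seven days before readout.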
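Wherever viability, T/C is given: percent of vehicle DMSO control viability so 100% = untreated growth.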

Q: Which IC50 (second compound 0.0316 µM) does the source give for `CCCS(=O)(=O)Nc1ccc(F)c(C(=O)c2c[nH]c3ncc(-c4ccc(Cl)cc4)cc23)c1F` + Cc1nc(NC(=O)N2CCCC2C(N)=O)sc1-c1ccnc(C(C)(C)C(F)(F)F)c1 here?
A: 5160 nM

Q: What about the IC50 (second compound 0.1 µM) of the same molecule?
A: 4740 nM

Q: And the IC50 (second compound 0.316 µM)?
A: 4210 nM

Q: And the IC50 (second compound 1 µM)?
A: 3490 nM

Q: And the IC50 (second compound 3.16 µM)?
A: 31.6 nM

Q: What about the IC50 (second compound 10 µM) of the same molecule?
A: < 31.6 nM

Q: What about the viability, T/C [1] of the same molecule?
A: 94.2%

Q: What about the viability, T/C [2] of the same molecule?
A: 95.6%

Q: And the viability, T/C (second compound 0.0316 µM, first compound 0.316 µM)?
A: 79.9%

Q: What about the viability, T/C (second compound 0.0316 µM, first compound 1 µM) of the same molecule?
A: 84.7%

Q: And the viability, T/C (second compound 0.0316 µM, first compound 3.16 µM)?
A: 83.7%

Q: And the viability, T/C (second compound 0.0316 µM, first compound 10 µM)?
A: 4.52%

Q: What about the viability, T/C [3] of the same molecule?
A: 84.3%

Q: And the viability, T/C [4]?
A: 84.3%

Q: And the viability, T/C (second compound 0.1 µM, first compound 0.316 µM)?
A: 86.2%

Q: And the viability, T/C (second compound 0.1 µM, first compound 1 µM)?
A: 96.3%

Q: And the viability, T/C (second compound 0.1 µM, first compound 3.16 µM)?
A: 75.1%

Q: What about the viability, T/C (second compound 0.1 µM, first compound 10 µM) of the same molecule?
A: 3.91%

Q: What about the viability, T/C [5] of the same molecule?
A: 73.2%

Q: And the viability, T/C [6]?
A: 62%

Q: What about the viability, T/C (second compound 0.316 µM, first compound 0.316 µM) of the same molecule?
A: 80.9%

Q: And the viability, T/C (second compound 0.316 µM, first compound 1 µM)?
A: 78.2%

Q: And the viability, T/C (second compound 0.316 µM, first compound 3.16 µM)?
A: 63.4%

Q: And the viability, T/C (second compound 0.316 µM, first compound 10 µM)?
A: 5.17%

Q: And the viability, T/C [7]?
A: 58.1%

Q: What about the viability, T/C [8] of the same molecule?
A: 52.7%

Q: What about the viability, T/C (second compound 1 µM, first compound 0.316 µM) of the same molecule?
A: 64.8%

Q: And the viability, T/C (second compound 1 µM, first compound 1 µM)?
A: 57.5%

Q: And the viability, T/C (second compound 1 µM, first compound 3.16 µM)?
A: 54.2%

Q: What about the viability, T/C (second compound 1 µM, first compound 10 µM) of the same molecule?
A: 4.7%

Q: And the viability, T/C [9]?
A: 52.2%

Q: And the viability, T/C [10]?
A: 38.9%

Q: And the viability, T/C (second compound 3.16 µM, first compound 0.316 µM)?
A: 50.9%

Q: What about the viability, T/C (second compound 3.16 µM, first compound 1 µM) of the same molecule?
A: 54.1%

Q: And the viability, T/C (second compound 3.16 µM, first compound 3.16 µM)?
A: 37.2%

Q: What about the viability, T/C (second compound 3.16 µM, first compound 10 µM) of the same molecule?
A: 7.19%

Q: And the viability, T/C [11]?
A: 39.7%

Q: What about the viability, T/C [12] of the same molecule?
A: 35.7%

Q: What about the viability, T/C (second compound 10 µM, first compound 0.316 µM) of the same molecule?
A: 43.7%

Q: And the viability, T/C (second compound 10 µM, first compound 1 µM)?
A: 37.8%

Q: And the viability, T/C (second compound 10 µM, first compound 3.16 µM)?
A: 21.2%

Q: And the viability, T/C (second compound 10 µM, first compound 10 µM)?
A: 4.33%

Q: How did the IC50 (second compound 0.00316 µM) turn out when `CC(=O)c1c(C)c2cnc(Nc3ccc(N4CCNCC4)cn3)nc2n(C2CCCC2)c1=O` + CC(Nc1ccc2c(c1)OCCn1cc(N3C(=O)OCC3C(F)F)nc1-2)C(N)=O was run?
A: > 100 nM

Q: And the IC50 (second compound 0.01 µM)?
A: > 100 nM

Q: And the IC50 (second compound 0.0316 µM)?
A: > 100 nM

Q: What about the IC50 (second compound 0.1 µM) of the same molecule?
A: > 100 nM

Q: And the IC50 (second compound 0.316 µM)?
A: > 100 nM

Q: And the IC50 (second compound 1 µM)?
A: < 0.316 nM

Q: And the viability, T/C (second compound 0.00316 µM, first compound 0.000316 µM)?
A: 102%

Q: And the viability, T/C (second compound 0.00316 µM, first compound 0.001 µM)?
A: 91.6%

Q: What about the viability, T/C (second compound 0.00316 µM, first compound 0.00316 µM) of the same molecule?
A: 94.5%

Q: What about the viability, T/C (second compound 0.00316 µM, first compound 0.01 µM) of the same molecule?
A: 89.8%

Q: And the viability, T/C (second compound 0.00316 µM, first compound 0.0316 µM)?
A: 98.2%

Q: And the viability, T/C (second compound 0.00316 µM, first compound 0.1 µM)?
A: 105%

Q: And the viability, T/C (second compound 0.01 µM, first compound 0.000316 µM)?
A: 97.1%

Q: And the viability, T/C (second compound 0.01 µM, first compound 0.001 µM)?
A: 84.9%

Q: What about the viability, T/C (second compound 0.01 µM, first compound 0.00316 µM) of the same molecule?
A: 93.7%

Q: What about the viability, T/C (second compound 0.01 µM, first compound 0.01 µM) of the same molecule?
A: 89.2%

Q: And the viability, T/C (second compound 0.01 µM, first compound 0.0316 µM)?
A: 83.9%

Q: What about the viability, T/C (second compound 0.01 µM, first compound 0.1 µM) of the same molecule?
A: 87.9%

Q: What about the viability, T/C [13] of the same molecule?
A: 90.8%

Q: And the viability, T/C [14]?
A: 76.1%

Q: What about the viability, T/C [15] of the same molecule?
A: 74.1%

Q: And the viability, T/C [16]?
A: 70.7%

Q: And the viability, T/C [1]?
A: 81.4%

Q: And the viability, T/C [2]?
A: 82.4%

Q: What about the viability, T/C [17] of the same molecule?
A: 68.8%

Q: And the viability, T/C [18]?
A: 68.9%

Q: And the viability, T/C [19]?
A: 69.8%

Q: What about the viability, T/C [20] of the same molecule?
A: 70.8%

Q: What about the viability, T/C [3] of the same molecule?
A: 66.5%

Q: And the viability, T/C [4]?
A: 67.5%

Q: What about the viability, T/C [21] of the same molecule?
A: 54.9%

Q: And the viability, T/C [22]?
A: 53.6%

Q: And the viability, T/C [23]?
A: 65.1%

Q: What about the viability, T/C [24] of the same molecule?
A: 50.7%

Q: What about the viability, T/C [5] of the same molecule?
A: 62.2%

Q: And the viability, T/C [6]?
A: 55.7%

Q: What about the viability, T/C [25] of the same molecule?
A: 47.5%

Q: What about the viability, T/C [26] of the same molecule?
A: 45.6%

Q: What about the viability, T/C [27] of the same molecule?
A: 41.9%

Q: And the viability, T/C [28]?
A: 42.4%

Q: And the viability, T/C [7]?
A: 44.9%

Q: What about the viability, T/C [8] of the same molecule?
A: 45.1%

Q: With `CC(C)n1nc(-c2ccc3oc(N)nc3c2)c2c(N)ncnc21` + Cc1nc(NC(=O)N2CCCC2C(N)=O)sc1-c1ccnc(C(C)(C)C(F)(F)F)c1 as the molecule, how does the IC50 (second compound 0.0316 µM) read?
A: 32.2 nM

Q: And the IC50 (second compound 0.1 µM)?
A: 27.6 nM

Q: What about the IC50 (second compound 0.316 µM) of the same molecule?
A: 21.2 nM

Q: What about the IC50 (second compound 1 µM) of the same molecule?
A: 12.6 nM

Q: What about the IC50 (second compound 3.16 µM) of the same molecule?
A: < 0.316 nM

Q: What about the IC50 (second compound 10 µM) of the same molecule?
A: < 0.316 nM

Q: And the viability, T/C [13]?
A: 84.3%

Q: What about the viability, T/C [14] of the same molecule?
A: 76%

Q: What about the viability, T/C [15] of the same molecule?
A: 98%

Q: What about the viability, T/C [16] of the same molecule?
A: 71.5%

Q: And the viability, T/C [1]?
A: 51.7%

Q: And the viability, T/C [2]?
A: 21.3%

Q: What about the viability, T/C [17] of the same molecule?
A: 83.8%

Q: What about the viability, T/C [18] of the same molecule?
A: 83.1%

Q: What about the viability, T/C [19] of the same molecule?
A: 79.8%

Q: And the viability, T/C [20]?
A: 63.9%

Q: And the viability, T/C [3]?
A: 49%

Q: What about the viability, T/C [4] of the same molecule?
A: 23%

Q: And the viability, T/C [21]?
A: 82.1%

Q: And the viability, T/C [22]?
A: 73.1%

Q: And the viability, T/C [23]?
A: 75.8%

Q: And the viability, T/C [24]?
A: 59.6%

Q: What about the viability, T/C [5] of the same molecule?
A: 44.4%

Q: What about the viability, T/C [6] of the same molecule?
A: 20.7%

Q: And the viability, T/C [25]?
A: 56.5%

Q: And the viability, T/C [26]?
A: 53.4%

Q: And the viability, T/C [27]?
A: 61.6%

Q: And the viability, T/C [28]?
A: 48.7%

Q: What about the viability, T/C [7] of the same molecule?
A: 42.6%

Q: And the viability, T/C [8]?
A: 19.5%

Q: What about the viability, T/C (second compound 3.16 µM, first compound 0.000316 µM) of the same molecule?
A: 43.2%

Q: What about the viability, T/C (second compound 3.16 µM, first compound 0.001 µM) of the same molecule?
A: 55.2%

Q: What about the viability, T/C (second compound 3.16 µM, first compound 0.00316 µM) of the same molecule?
A: 47.5%

Q: What about the viability, T/C (second compound 3.16 µM, first compound 0.01 µM) of the same molecule?
A: 40%

Q: What about the viability, T/C [9] of the same molecule?
A: 28.6%

Q: What about the viability, T/C [10] of the same molecule?
A: 17.2%

Q: What about the viability, T/C (second compound 10 µM, first compound 0.000316 µM) of the same molecule?
A: 33.2%

Q: What about the viability, T/C (second compound 10 µM, first compound 0.001 µM) of the same molecule?
A: 31.1%

Q: What about the viability, T/C (second compound 10 µM, first compound 0.00316 µM) of the same molecule?
A: 29.6%

Q: What about the viability, T/C (second compound 10 µM, first compound 0.01 µM) of the same molecule?
A: 35.4%

Q: And the viability, T/C [11]?
A: 18.8%

Q: What about the viability, T/C [12] of the same molecule?
A: 8.12%
